Assay results reported in patent publication US9474790B2, “Stable, protracted GLP-1/glucagon receptor co-agonists for medical use” (Novo Nordisk A/S, priority 2013, dated 2016).
pIC50: −log10 of the molar value. Numbered stars: 1 amine (or outer) side, 2 acyl side, 3 side chain; on linkers, the order of the positions; unused ones are H or OH. Square brackets hold non-standard residues; d marks the D form. Side chains are listed from the residue outwards. Peptide text beside a SMILES is read from it. * marks the point of attachment. C18 diacid = O=C(O)CCCCCCCCCCCCCCCCC(=O)*; γGlu = O=C(O)[C@H](CCC(=O)[*:2])N[*:1]; AEEA = NCCOCCOCC(=O)O; Aib = CC(C)(N)C(=O)O

target: T1, human GLP-1 receptor (Homo sapiens, UniProt P43220); experiment: GLP-1 receptor binding, 125I-GLP-1 displacement SPA on isolated membranes; settings: displacement of 125I-GLP-1 from membranes; read-out: IC50 GLP-1R
T1 construct: expressed in transfected cells; host or cells: BHK cells (parent BHKTS13), clone FCW467-12A/KZ10-1, with CRE luciferase
Summary of the method: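 SPA displacement of 125I-GLP-1(7-36)NH2 from membranes of BHK cells expressing human GLP-1 receptor, with WGA beads, in 50 mM HEPES, 5 mM EGTA, 5 mM MgCl2, 0.005% Tween 20, pH 7.4. Incubated 2 h at 30°C; IC50 by non-linear regression, run at ≤0.001% or 2.0% final serum albumin.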

T1 sequence (P43220 24-463): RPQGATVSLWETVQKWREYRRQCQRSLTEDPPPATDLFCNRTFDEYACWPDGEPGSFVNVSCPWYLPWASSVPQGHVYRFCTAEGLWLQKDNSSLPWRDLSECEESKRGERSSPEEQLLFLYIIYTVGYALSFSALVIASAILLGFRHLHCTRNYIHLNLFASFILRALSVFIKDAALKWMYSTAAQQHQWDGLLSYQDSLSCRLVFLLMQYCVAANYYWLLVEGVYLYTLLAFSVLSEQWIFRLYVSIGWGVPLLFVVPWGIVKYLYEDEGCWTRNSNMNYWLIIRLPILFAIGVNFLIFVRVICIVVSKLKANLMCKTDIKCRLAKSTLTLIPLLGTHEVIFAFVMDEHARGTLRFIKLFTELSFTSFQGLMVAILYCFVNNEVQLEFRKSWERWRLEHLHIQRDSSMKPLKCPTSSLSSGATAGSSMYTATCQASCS

| pIC50 | SMILES |
| --- | --- |
| 9.30 | CC(C)C[C@H](NC(=O)[C@H](Cc1ccc(O)cc1)NC(=O)[C@H](CCCCN)NC(=O)[C@H](CO)NC(=O)[C@H](CC(C)C)NC(=O)[C@H](CC(=O)O)NC(=O)[C@H](CO)NC(=O)[C@@H](NC(=O)[C@H](Cc1ccccc1)NC(=O)[C@@H](NC(=O)CNC(=O)[C@H](CCC(N)=O)NC(=O)C(C)(C)NC(=O)[C@@H](N)Cc1c[nH]cn1)[C@@H](C)O)[C@@H](C)O)C(=O)N[C@@H](CC(=O)O)C(=O)N[C@@H](CCCCNC(=O)CC[C@H](NC(=O)CC[C@H](NC(=O)COCCOCCNC(=O)COCCOCCNC(=O)CC[C@H](NC(=O)CCCCCCCCCCCCCCCCC(=O)O)C(=O)O)C(=O)O)C(=O)O)C(=O)N[C@@H](CCCNC(=N)N)C(=O)N[C@@H](CCCNC(=N)N)C(=O)N[C@@H](C)C(=O)N[C@@H](CCCNC(=N)N)C(=O)N[C@@H](CCC(=O)O)C(=O)N[C@@H](Cc1ccccc1)C(=O)N[C@H](C(=O)N[C@@H](CCC(N)=O)C(=O)N[C@@H](Cc1c[nH]c2ccccc12)C(=O)N[C@@H](CC(C)C)C(=O)N[C@@H](CC(C)C)C(=O)N[C@@H](CC(N)=O)C(=O)N[C@H](C(N)=O)[C@@H](C)O)C(C)C [Example 10, N^ε16-[(4S)-4-carboxy-4-[[(4S)-4-carboxy-4-[[2-[2-[2-[[2-[2-[2-[[(4S)-4-carboxy-4-(17-carboxyheptadecanoylamino)butanoyl]amino]ethoxy]ethoxy]acetyl]amino]ethoxy]ethoxy]acetyl]amino]butanoyl]amino]butanoyl]-[Aib2,Leu10,Lys16,Arg20,Glu21,Leu27]-Glucagon amide] (H-H[Aib]QGTFTSDLSKYLDK([γGlu-γGlu-AEEA-AEEA-γGlu-C18 diacid])RRAREFVQWLLNT-NH2; N-terminus assumed) |
| 9.70 | CC(C)C[C@H](NC(=O)[C@H](Cc1ccc(O)cc1)NC(=O)[C@H](CCCCN)NC(=O)[C@H](CO)NC(=O)[C@H](CC(C)C)NC(=O)[C@H](CC(=O)O)NC(=O)[C@H](CO)NC(=O)[C@@H](NC(=O)[C@H](Cc1ccccc1)NC(=O)[C@@H](NC(=O)CNC(=O)[C@H](CCC(N)=O)NC(=O)C(C)(C)NC(=O)[C@@H](N)Cc1c[nH]cn1)[C@@H](C)O)[C@@H](C)O)C(=O)N[C@@H](CCC(=O)O)C(=O)N[C@@H](CO)C(=O)N[C@@H](CCCCN)C(=O)N[C@@H](CCCNC(=N)N)C(=O)N[C@@H](C)C(=O)N[C@@H](CCCNC(=N)N)C(=O)N[C@@H](CCC(=O)O)C(=O)N[C@@H](Cc1ccccc1)C(=O)N[C@H](C(=O)N[C@@H](CCC(N)=O)C(=O)N[C@@H](Cc1c[nH]c2ccccc12)C(=O)N[C@@H](CC(C)C)C(=O)N[C@@H](CC(C)C)C(=O)N[C@@H](CCCCNC(=O)CC[C@H](NC(=O)CC[C@H](NC(=O)[C@H](CO)NC(=O)[C@H](CCC(=O)O)NC(=O)[C@H](CO)NC(=O)CC[C@H](NC(=O)CC[C@H](NC(=O)CCCCCCCCCCCCCCCCC(=O)O)C(=O)O)C(=O)O)C(=O)O)C(=O)O)C(=O)N[C@H](C(N)=O)[C@@H](C)O)C(C)C [Example 52] (H-H[Aib]QGTFTSDLSKYLESKRAREFVQWLLK([γGlu-γGlu-Ser-Glu-Ser-γGlu-γGlu-C18 diacid])T-NH2; N-terminus assumed) |
| 9.40 | CC(C)C[C@H](NC(=O)[C@H](CC(C)C)NC(=O)[C@H](Cc1c[nH]c2ccccc12)NC(=O)[C@H](CCC(N)=O)NC(=O)[C@@H](NC(=O)[C@H](Cc1ccccc1)NC(=O)[C@H](CCC(=O)O)NC(=O)[C@H](CCCNC(=N)N)NC(=O)[C@H](C)NC(=O)[C@H](CCCNC(=N)N)NC(=O)[C@H](CCCNC(=N)N)NC(=O)[C@H](CO)NC(=O)[C@H](CCC(=O)O)NC(=O)[C@H](CC(C)C)NC(=O)[C@H](Cc1ccc(O)cc1)NC(=O)[C@H](CCCCN)NC(=O)[C@H](CO)NC(=O)[C@H](CC(C)C)NC(=O)[C@H](CC(=O)O)NC(=O)[C@H](CO)NC(=O)[C@@H](NC(=O)[C@H](Cc1ccccc1)NC(=O)[C@@H](NC(=O)CNC(=O)[C@H](CCC(N)=O)NC(=O)C(C)(C)NC(=O)[C@@H](N)Cc1c[nH]cn1)[C@@H](C)O)[C@@H](C)O)C(C)C)C(=O)N[C@@H](CC(N)=O)C(=O)N[C@@H](CCCCNC(=O)CC[C@H](NC(=O)CC[C@H](NC(=O)COCCOCCNC(=O)CC[C@H](NC(=O)CCCCCCCCCCCCCCCCC(=O)O)C(=O)O)C(=O)O)C(=O)O)C(N)=O [Example 40, N^ε29-[(4S)-4-carboxy-4-[[(4S)-4-carboxy-4-[[2-[2-[2-[[(4S)-4-carboxy-4-(17-carboxyheptadecanoylamino)butanoyl]amino]ethoxy]ethoxy]acetyl]amino]butanoyl]amino]butanoyl]-[Aib2,Leu10,Glu15,Arg20,Glu21,Leu27,Lys29]-Glucagon amide] (H-H[Aib]QGTFTSDLSKYLESRRAREFVQWLLNK([γGlu-γGlu-AEEA-γGlu-C18 diacid])-NH2; N-terminus assumed) |
